According to US20220041627A1, “PRODRUGS OF ANTI-CANCER AND ANTI-AUTOIMMUNE DISEASES THERAPEUTIC AGENTS, AND METHODS OF MAKING AND USE THEREOF” (UNIVERSITY OF MARYLAND, BALTIMORE, priority 2018, published 2022):

Columns and labels:
breast cancer MCF7 cells = assay: Cell viability (CCK8) in breast cancer MCF7 cells; type: cell-based, human; settings: different concentrations, compared with parent drug 5-FU
Method: FIGS. 2A and 2B illustrate the anticancer effects and selectivity of 5-FU and compounds 1a-1c. Cell viability was analyzed after the breast cancer MCF7 cells (FIG. 2A) and normal MEC1 cells (FIG. 2B) were treated with 5-FU or compounds 1a-1c at different concentrations. Data are presented as mean±SD, n=4.
Cell Counting Kit-8 (CCK8, Dojingo) was used to carry out the cytotoxicity assessment of the prodrugs. Seeded cells were treated with varying compound concentrations for 48-72 h and the CCK8 kit was used to measure the cytotoxicity. For NAC experiments, this ROS scavenger was pre-incubated with the cells for 2 h and then co-incubated with the prodrugs for additional 48 hours unless otherwise noted.
The anticancer effects of new compounds 1a and 1b were tested using the breast cancer MCF7 cells and normal MEC1 cells (FIGS. 2A and 2B). […] These differential killing results highlight the specificity of new prodrugs 1a-1b for cancer cells over normal cells. […] To further verify the role of ROS in the drug release process, the MTT assays was performed, using MCF7 cells pretreated with the ROS scavenger N-Acetyl-Cysteine (NAC).

[1] = tested on: human colorectal cancer cells SW480; assay: Anti-proliferative activity in SW480 cells; type: cell-based; settings: 10 μM, compared to parent drug 6MP
Method: FIG. 12 illustrates the anticancer effects and selectivity of 6MP (10 μM), prodrugs YA6131 (10 μM) and YA6075 (10 μM), evaluated in human colorectal cancer cells SW480 and normal HEK293 cells.
Anticancer effects and selectivity of 6MP (10 μM), prodrugs YA6131 (10 μM) and YA6075 (10 μM): the anticancer activities of prodrugs YA6131 and YA6075 were evaluated in comparison to the parent drug 6MP using the human colorectal cancer cells SW480 and normal HEK293 cells (FIG. 12). […] Without wishing to be bound by any particular theory, it was reasoned that the difference of the anticancer effects of the two prodrugs were due to their different release kinetics of the two compounds in the particular cells used.

[2] = tested on: wild-type C57BL/6 male mice; assay: Acute toxicity in mice; type: in vivo; settings: 100 mg/kg i.p. every other day for 15 days, C57BL/6 male mice
Method: FIGS. 5A and 5B illustrate the survival rate (FIG. 5A) and body weight (FIG. 5B) curves of the various groups of mice. […] Mice were treated every other day by intraperitoneal (i.p.) injection for 15 days, the survival and body weights of the mice were recorded after treatment.
Mice were treated every other day by intraperitoneal (i.p.) injection for 15 days, the survival and body weights of the mice were recorded after treatment.

γH2AX = γH2AX immunofluorescence assay in MCF7 cells; type: cell-based, human; settings: 48 h
Method: (§1) FIGS. 4A and 4B illustrate the effect of compounds 1a-1b in apoptosis. FIG. 4A: immunofluorescence of DNA cleavage protein γH2Ax was enhanced by using 5-FU and prodrugs 1a-1b. FIG. 4B: immunoblot analysis of MCF-7 cells treated with 5-FU, prodrugs 1a-1b for apoptosis markers PARP1 and Caspase 3. The cells were treated for 48 h with the indicated concentrations of compounds.
Immunohistochemistry Analysis. MCF7 cells were seeded on poly-D-lysine coated slides. Compounds were incubated with cells for 48 h. Following treatment, cells were washed once in PBS and fixed in 10% formalin for 20 min at room temperature. Methanol was used to permeabilize the cells for 10 min and PBS wash was carried out. Bovine serum albumin was used for 1 h blocking and primary antibodies for γH2AX (SCBT, #sc-517348) was incubated with the cells overnight. Fluorescent secondary antibodies were incubated with cells along with DAPI. Cells were washed trice with PBS and the slides were mounted prior to confocal imaging.
(§2) To understand the mechanism of action of prodrugs 1a-1b, the impact of the treatment of compounds 1a-1b on the γH2AX formation in MCF7 cells were determined using immunofluorescence assay (FIG. 4A). […] The effects of prodrugs 1a-1b on the PARP1 and caspase 3 cleavage in MCF7 cells were also determined using Western blots assays (FIG. 4B). […] Treatment of 5-FU and compounds 1a-1b increased the levels of cleavage of PARP1 and caspase 3 in MCF7 cells, as compared with that in the vehicle-treated controls. Therefore, prodrugs 1a-1b, similar to 5-FU, can induce MCF7 cell apoptosis, which might contribute to their pharmacological actions.

caspase 3 = assay: Western blot of caspase 3 in MCF7 cells; type: cell-based, human; settings: 48 h
Method: as §1
(§3) Western Blot Analysis. Treated cells were washed once with PBS and lysed with RIPA lysis buffer (Santa Cruz Biotechnology, SCBT, #24948) supplemented with sodium orthovanadate, PMSF, protease and phosphatase inhibitor cocktails (Sigma Aldrich). Cell lysates were centrifuge for 15 min at 14,000×g and the supernatant was used for immunoblotting. Protein concentration was normalized for the samples and resolved on a 10-13% SDS-PAGE gel. Following transfer to nitrocellulose membrane, specific mouse primary antibodies from SCBT (PARP1 #sc-8007, caspase 3 #sc-7272) and Cell Signaling (cleaved PARP1 #9541, cleaved caspase-3 #9664) were added and incubated overnight. Secondary antibodies corresponding to the host of the primary antibodies was further incubated with the membrane and washed three times to remove excess antibodies. Odyssey Fc Imaging System (LI-COR, Lincoln, Nebr.) was used to quantify the chemiluminescent of the proteins.
as §2

[3] = biological target: dihydropyrimidine dehydrogenase (DPD) (Homo sapiens, UniProt Q12882); settings: injected 5-FU, degradation into 5-FUH2; cited from earlier work
PARP1 = assay: Western blot of PARP1 in MCF7 cells; type: cell-based, human; settings: 48 h
Method: as §1, §3, §2

[4] = compared to vehicle-treated cells
[5] = compared to vehicle-treated controls

dihydropyrimidine dehydrogenase (DPD), sequence (Q12882 4-1025): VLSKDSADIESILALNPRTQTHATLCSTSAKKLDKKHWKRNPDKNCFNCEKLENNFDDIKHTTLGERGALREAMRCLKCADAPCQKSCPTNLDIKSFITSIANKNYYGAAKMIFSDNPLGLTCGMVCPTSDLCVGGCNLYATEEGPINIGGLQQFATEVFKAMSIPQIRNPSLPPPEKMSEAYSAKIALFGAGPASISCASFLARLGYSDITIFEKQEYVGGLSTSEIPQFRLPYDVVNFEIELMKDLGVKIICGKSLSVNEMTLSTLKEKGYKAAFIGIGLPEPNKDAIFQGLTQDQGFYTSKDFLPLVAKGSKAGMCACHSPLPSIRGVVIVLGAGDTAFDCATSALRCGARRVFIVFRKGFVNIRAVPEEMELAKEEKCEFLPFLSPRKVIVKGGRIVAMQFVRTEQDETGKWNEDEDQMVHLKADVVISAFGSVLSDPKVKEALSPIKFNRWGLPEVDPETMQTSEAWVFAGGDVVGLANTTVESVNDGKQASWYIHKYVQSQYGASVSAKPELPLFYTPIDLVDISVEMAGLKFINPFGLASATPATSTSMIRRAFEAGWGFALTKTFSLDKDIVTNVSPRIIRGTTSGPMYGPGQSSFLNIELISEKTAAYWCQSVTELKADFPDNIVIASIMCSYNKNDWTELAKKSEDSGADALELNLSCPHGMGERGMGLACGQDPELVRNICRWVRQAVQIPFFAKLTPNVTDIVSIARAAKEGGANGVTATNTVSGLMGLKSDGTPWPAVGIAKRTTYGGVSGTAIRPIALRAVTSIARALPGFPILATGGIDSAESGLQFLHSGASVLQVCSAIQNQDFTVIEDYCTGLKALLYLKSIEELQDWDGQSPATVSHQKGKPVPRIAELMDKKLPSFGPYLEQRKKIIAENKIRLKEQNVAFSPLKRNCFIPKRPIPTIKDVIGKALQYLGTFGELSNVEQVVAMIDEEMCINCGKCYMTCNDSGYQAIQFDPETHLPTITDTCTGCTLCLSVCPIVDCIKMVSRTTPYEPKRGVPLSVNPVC

**Q.** For `O=c1[nH]c(=O)n(Cc2ccccc2)cc1F` [Compound 1c, 1-Benzyl-5-fluoropyrimidine-2,4(1H,3H)-dione], which “antiproliferative activity / anticancer effects” value (breast cancer MCF7 cells) is on record?
**A.** no obvious antiproliferative effects

**Q.** Which anti-proliferative activity [1] does the source give for `CC1(C)OB(c2ccc(Cn3cnc4c(S)ncnc43)cc2)OC1(C)C` [YA6075, 9-(4-(4,4,5,5-Tetramethyl-1,3,2-dioxaborolan-2-yl)benzyl)-9H-purine-6-thiol] here?
**A.** reduced effect

**Q.** Which “survival / animal death” value [2] does the source give for `O=c1[nH]cc(F)c(=O)[nH]1` [Compound 5-FU, 5-fluorouracil, reference compound] here?
**A.** killed all mice on the twelfth day

**Q.** What about the γH2AX formation (γH2AX) of the same molecule?
**A.** enhanced

**Q.** And the “expression level of caspase 3” value (caspase 3; [4])?
**A.** significantly reduced

**Q.** What about the “level of cleavage of caspase 3” value (caspase 3; [5]) of the same molecule?
**A.** increased

**Q.** What about the “share of injected doses deactivated by DPD” value [3] of the same molecule?
**A.** more than 85%

**Q.** And the “expression level of PARP1” value (PARP1; [4])?
**A.** significantly reduced

**Q.** What about the “level of cleavage of PARP1” value (PARP1; [5]) of the same molecule?
**A.** increased

**Q.** Which anti-proliferative activity [1] does the source give for `CC1(C)OB(c2ccc(CSc3ncnc4[nH]cnc34)cc2)OC1(C)C` [YA6131] here?
**A.** similarly potent anti-proliferative activity as compared to 6MP
